Holding throughout (format): cell-based
The test system of assay [1] is P-388 (suspension culture of a lymphoid neoplasm from DBA/2 mouse). The experiment in a line: Antitumor screening, P-388 cell growth. The conditions noted are these: P388, 72 h, P-388 cells, three days of incubation, approximate IC50 vs control growth. As for the experimental part:
(§1) Cells were maintained in logarithmic phase of growth in Eagle's Minimum Essential Medium, with Earle's Balanced Salts, with 2.0 mM L-glutamine, with non-essential amino acids, without sodium bicarbonate (EMEM/neaa); supplemented with 10% Fetal Calf Serum (FCS), 10^−2 M sodium bicarbonate and 0.1 g/l penicillin+G streptomycin sulfate.
(§2) A screening procedure has been carried out to determine and compare the antitumor activity of these compounds, using an adapted form of the method described by Bergeron et al. (Reference 15: Raymond J. Bergeron, Paul F. Cavanaugh, Jr., Steven J. Kline, Robert G. Hughes, Jr., Gary T. Elliot and Carl W. Porter. Antineoplastic and antiherpetic activity of spermidine catecholamide iron chelators. Biochem. Bioph. Res. Comm. 1984, 121, 848-854). The antitumor cells employed were P-388 (suspension culture of a lymphoid neoplasm from DBA/2 mouse), A-549 (monolayer culture of a human lung carcinoma), HT-29 (monolayer culture of a human colon carcinoma) and MEL-28 (monolayer culture of a human melanoma).
P-388 cells were seeded into 16 mm wells at 1×10^4 cells per well in 1 ml aliquots of MEM 5FCS containing the indicated concentration of drug. A separate set of cultures without drug was seeded as control growth to ensure that cells remained in exponential phase of growth. All determinations were carried out in duplicate. […]

Assay [2] has as its system A-549 (monolayer culture of a human lung carcinoma). The experiment in a line: Antitumor screening, A-549 cell growth (Crystal Violet). The conditions noted are these: A549, 72 h, A-549 cells, three days of incubation, approximate IC50. The procedure:
as §1, §2
(§3) A-549, HT-29 cells were seeded into 16 mm wells at 2×10^4 cells per well in 1 ml aliquots of MEM 10FCS containing the indicated concentration of drug. […] An approximately IC50 was determined by comparing the growth in wells with drug to the growth in wells control.

The test system of assay [3] is HT-29 (monolayer culture of a human colon carcinoma). Description: Antitumor screening, HT-29 cell growth (Crystal Violet). The conditions noted are these: 72 h, HT-29 cells, three days of incubation, approximate IC50. As for the experimental part: as §1, §2, §3
Assay [4] concerns MEL-28 (monolayer culture of a human melanoma). Description: Antitumor screening, MEL-28 cell growth. The conditions noted are these: SK-MEL-28, MEL-28 cells, approximate IC50. The procedure:
as §1, §2, §3

For the compound `CN(C)CCc1c2c(c3nccc4c3c1Nc1ccccc1-4)NC(=O)CS2` [Shermilamine D], the half-inhibitory concentration (IC50) in assay [1] worked out at 1330 nM; in assay [2] it was 270 nM; in assay [3], 2660 nM; in assay [4], 530 nM.

For orientation: IC50 means the concentration that inhibits the measured activity by half.
